Values quoted from earlier work in patent US4866036A, “Dipeptidyl 5-0,6-0-acyl-2-amino-2-deoxy-D-glucofuranose compositions and methods of use in aids-immunocompromised human hosts” (priority 1987, dated 1989).

Assays:
[1] = target: HIV reverse transcriptase (Human immunodeficiency virus type 1 group M subtype B, UniProt P04585)
[2] = human, in vivo
[3] = human, in vivo; remark: listed apart in the source
[4] = in vivo
[5] = test system: reverse transcriptase in several retroviruses; settings: in vitro

Molecule | toxicity / adverse effects in patients [2] | clinical effect in AIDS or ARC patients [3] | also measured
O=C(O)P(=O)(O)O [Foscarnet, trisodium phosphonoformate] | serious side effects |  | HIV reverse transcriptase activity [1]: Inhibits HIV reverse transcriptase activity in vitro
CC(C)(N1CC1C#N)N1CC1C(N)=O (centres unmarked) [Azimexon] | mild hemolysis | improvements in symptoms and immune function in patients with ARC but not AIDS | 
Cc1ccc(C(=O)Nc2ccc(S(=O)(=O)O)c3cc(S(=O)(=O)O)cc(S(=O)(=O)O)c23)cc1NC(=O)c1cccc(NC(=O)Nc2cccc(C(=O)Nc3cc(C(=O)Nc4ccc(S(=O)(=O)O)c5cc(S(=O)(=O)O)cc(S(=O)(=O)O)c45)ccc3C)c2)c1 [Suramin] |  |  | HIV reverse transcriptase activity [1]: Potent inhibitor
CC(=O)Nc1ccc(C(=O)O)cc1.CC(=O)Nc1ccc(C(=O)O)cc1.CC(=O)Nc1ccc(C(=O)O)cc1.CC(O)CN(C)C.CC(O)CN(C)C.CC(O)CN(C)C.O=c1[nH]cnc2c1ncn2[C@@H]1O[C@H](CO)[C@@H](O)[C@H]1O [Inosine pranobex] |  | improve immune function in ARC patients | 
Cc1cn([C@H]2C[C@H](N=[N+]=[N-])[C@@H](CO)O2)c(=O)[nH]c1=O [Azidothymidine, 3'-azido 3'-deoxythymidine] |  |  | half-life in the body [4]: relatively short half-life; penetration of the central nervous system [4]: effectively penetrates central nervous system
α-Interferon |  | induced tumor regression in some AIDS related Kaposi's sarcoma cases | growth of HIV (HIV): Checks the growth of HIV in vitro
CO[C@H]1/C=C/O[C@@]2(C)Oc3c(C)c(O)c4c(c3C2=O)C2=NC3(CCN(CC(C)C)CC3)NC2=C(NC(=O)/C(C)=C\C=C\[C@H](C)[C@H](O)[C@@H](C)[C@@H](O)[C@@H](C)[C@H](OC(C)=O)[C@@H]1C)C4=O [Ansamycin, rifabutin] |  | some efficacy | 
NC(=O)c1ncn([C@@H]2O[C@H](CO)[C@@H](O)[C@H]2O)n1 [Ribavirin, 1β-D ribofuranosyl 1,2,4-triazole 3-carboxamide] |  | inhibited viral replication and improved immune function | 
CC(C)(S)[C@@H](N)C(=O)O [D-Penicillamine, 3-mercapto-D-valine] | temporarily depressed T cell levels | suppressed the virus | 
ammonium 21-tungsto-9 antimoniate [HPA 23] |  | no therapeutic benefit has been documented | reverse transcriptase in several retroviruses [5]: Inhibits reverse transcriptase; growth of HIV (HIV): some tendency to check the growth of HIV
